Assay results reported in ChEMBL document CHEMBL4414671, “Antinociceptive Grayanane Diterpenoids from the Leaves of Pieris japonica” (2019).

What follows are compounds tested on Mus musculus (assay: Antinociceptive activity in mouse as reduction in acetic acid-induced writhes at 5 mg/kg, ip relative to control).
Assay type: functional

Point of comparison: C=C1[C@@H]2CC[C@@H]3C[C@@]2(C[C@@H](O)[C@@]2(O)[C@H]1CC(=O)C2(C)C)C[C@@]3(C)O, inhibition in vivo at 5 mg/kg 87.3%. Against it:
- C=C1[C@@H]2[C@H](O)[C@H](O)C(C)(C)[C@@]2(O)[C@H](O)C[C@]23C[C@@](C)(O)[C@H](CC[C@@H]12)[C@H]3O — not separable, > 50%
- C=C1[C@@H]2[C@@H](O)[C@H](O)C(C)(C)[C@@]2(O)[C@H](O)C[C@]23C[C@@](C)(O)[C@H](CC[C@@H]12)[C@H]3OC(=O)CC — not separable, > 50%
- C=C1[C@H]2C[C@H](O)C(C)(C)[C@]2(O)CC[C@@]23C[C@@H](CC[C@@H]12)[C@@](O)(CO)C3 — not separable, > 50%
- C=C1[C@@H]2CC[C@@H]3[C@@H](OC(=O)CC)[C@@]2(C[C@@H](O)[C@@]2(O)[C@H]1C[C@H](O)C2(C)C)C[C@@]3(C)O — not separable, > 50%
- C=C1[C@@H]2C[C@@H](O)[C@@H]3C[C@@]2(C[C@@H](O)[C@@]2(O)[C@H]1C[C@H](O)C2(C)C)C[C@@]3(C)O — not separable, > 50%
- CC1(C)[C@@H](O)C[C@@H]2[C@@](C)(O)[C@@H]3CC[C@]4(O)C[C@@]3(C[C@@H](O)[C@@]21O)C[C@@]4(C)O — not separable, > 50%
- CC1=C2CC[C@@H]3C[C@@]2(C[C@@H](O)[C@@]2(O)[C@H]1C[C@H](O)C2(C)C)C[C@@]3(C)O — not separable, > 50%
- C=C1[C@@H]2[C@@H](OC)[C@H](O)C(C)(C)[C@@]2(O)[C@H](O)C[C@]23C[C@@](C)(O)[C@H](CC[C@@H]12)[C@H]3O — not separable, > 50%
- C=C1[C@@H]2CC[C@@H]3C[C@@]2(C[C@@H](O)[C@@]2(O)[C@H]1C[C@H](O)C2(C)C)C[C@@]3(C)OC — not separable, > 50%
- CC1=C2C[C@H](O)C(C)(C)[C@]23O[C@]12CC[C@@H]1C[C@@]2(C[C@H]3O)C[C@@]1(C)O — not separable, > 50%
- C=C1[C@@H]2CC[C@@H]3[C@@H](O)[C@@]2(C[C@@H](O)[C@@]2(O)[C@H]1C[C@H](O)C2(C)C)C[C@@]3(C)O — not separable, > 50%
- C=C1C2=C([C@H](O)C[C@@]34C[C@@H](CC[C@@H]13)[C@](C)(O)C4)C(C)(C)[C@@H](O)[C@H]2O — not separable, > 50%
- C=C1[C@@H]2[C@@H](O)[C@H](O)C(C)(C)[C@@]2(O)[C@H](O)C[C@]23C=C(C)[C@H](CC[C@@H]12)[C@H]3O — not separable, > 50%
- C=C1[C@@H]2CC[C@@H]3C[C@@]2(C[C@@H](O)[C@@]2(O)[C@@H]1[C@H](O)[C@H](O)C2(C)C)C[C@@]3(C)O — not separable, > 50%
- C=C1[C@@H]2CC[C@@H]3C[C@@]2(C[C@@H](O)[C@@]2(O)[C@H]1C[C@H](O)C2(C)C)C[C@@]3(C)O — not separable, > 50%
- C=C1[C@@H]2[C@@H](OC)[C@H](O)C(C)(C)[C@@]2(O)[C@H](O)C[C@]23C=C(C)[C@H](CC[C@@H]12)[C@H]3O — not separable, > 50%
- C=C1[C@@H]2CC[C@H]3C(C)=C[C@]2(C[C@@H](O)[C@@]2(O)[C@H]1C[C@H](O)C2(C)C)[C@@H]3O — not separable, > 50%
- C=C1[C@@H]2[C@@H](OC)[C@H](O)C(C)(C)[C@@]2(O)[C@H](O)C[C@]23C[C@@](C)(O)[C@H](CC[C@@H]12)[C@H]3OC(=O)C(C)O (stereo partly specified) — not separable, > 50%

The compounds below were run on Mus musculus (assay: Antinociceptive activity in mouse as reduction in acetic acid-induced writhes at 1 mg/kg, ip relative to control).
Assay type: functional

C=C1[C@@H]2CC[C@@H]3C[C@@]2(C[C@@H](O)[C@@]2(O)[C@H]1CC(=O)C2(C)C)C[C@@]3(C)O showed an inhibition in vivo at 1 mg/kg of 76.3%.

These compounds were tested on Mus musculus (assay: Antinociceptive activity in mouse as reduction in acetic acid-induced writhes at 0.2 to 1 mg/kg, ip relative to control).
Assay type: functional

With CC1=C2CC[C@@H]3[C@@H](O)[C@@]2(C[C@@H](O)[C@@]2(O)[C@H]1[C@@H](O)[C@H](O)C2(C)C)C[C@@]3(C)O the “inhibition (INH)” value was over 50%.

What follows are compounds tested on Mus musculus (assay: Antinociceptive activity in mouse as reduction in acetic acid-induced writhes at 0.2 mg/kg, ip relative to control).
Assay type: functional

With C=C1[C@@H]2CC[C@@H]3C[C@@]2(C[C@@H](O)[C@@]2(O)[C@H]1CC(=O)C2(C)C)C[C@@]3(C)O the inhibition in vivo at 0.2 mg/kg was 59.1%.

These compounds were tested on Mus musculus (assay: Antinociceptive activity in mouse as reduction in acetic acid-induced writhes at 0.04 mg/kg,ip relative to control).
Assay type: functional

Point of comparison: C=C1[C@@H]2CC[C@@H]3C[C@]2(C=C3CO)C[C@@H](O)[C@@]2(O)[C@H]1C[C@H](O)C2(C)C, inhibition in vivo at 0.04 mg/kg 56.3%. Against it:
- CO[C@H]1[C@H](O)C(C)(C)[C@@]2(O)[C@H](O)C[C@]34C[C@@](C)(O)[C@H](CC[C@H]3[C@@](C)(O)[C@H]12)[C@H]4O — higher, 59.1%
- CC1=C[C@@]23C[C@@H](O)[C@@]4(O)[C@@H]([C@@H](O)[C@H](O)C4(C)C)[C@](C)(O)[C@@H]2CC[C@@H]1[C@H]3O — higher, 61.9%
- CC1(C)[C@@H](O)[C@H](O)[C@H]2[C@](C)(O)[C@@H]3CC[C@@H]4[C@@H](O)[C@@]3(C[C@@H](O)[C@@]21O)C[C@@]4(C)O — higher, 88.7%
